Experimental findings from ChEMBL document CHEMBL1201862, “PubChem BioAssay data set” (2004) are described below.

Assay [1] is described as follows: SAR analysis of small molecule activators of Apaf-1 using a LZ-Caspase-9/Caspase-3 Fluorescent Selectivity assay - Set 2. Format: functional. The note with it: read-out: EC50_Mean.
In assay [2] the target is T1, Apoptotic protease-activating factor 1 (Homo sapiens, UniProt O14727).
T1 sequence (O14727 whole entry): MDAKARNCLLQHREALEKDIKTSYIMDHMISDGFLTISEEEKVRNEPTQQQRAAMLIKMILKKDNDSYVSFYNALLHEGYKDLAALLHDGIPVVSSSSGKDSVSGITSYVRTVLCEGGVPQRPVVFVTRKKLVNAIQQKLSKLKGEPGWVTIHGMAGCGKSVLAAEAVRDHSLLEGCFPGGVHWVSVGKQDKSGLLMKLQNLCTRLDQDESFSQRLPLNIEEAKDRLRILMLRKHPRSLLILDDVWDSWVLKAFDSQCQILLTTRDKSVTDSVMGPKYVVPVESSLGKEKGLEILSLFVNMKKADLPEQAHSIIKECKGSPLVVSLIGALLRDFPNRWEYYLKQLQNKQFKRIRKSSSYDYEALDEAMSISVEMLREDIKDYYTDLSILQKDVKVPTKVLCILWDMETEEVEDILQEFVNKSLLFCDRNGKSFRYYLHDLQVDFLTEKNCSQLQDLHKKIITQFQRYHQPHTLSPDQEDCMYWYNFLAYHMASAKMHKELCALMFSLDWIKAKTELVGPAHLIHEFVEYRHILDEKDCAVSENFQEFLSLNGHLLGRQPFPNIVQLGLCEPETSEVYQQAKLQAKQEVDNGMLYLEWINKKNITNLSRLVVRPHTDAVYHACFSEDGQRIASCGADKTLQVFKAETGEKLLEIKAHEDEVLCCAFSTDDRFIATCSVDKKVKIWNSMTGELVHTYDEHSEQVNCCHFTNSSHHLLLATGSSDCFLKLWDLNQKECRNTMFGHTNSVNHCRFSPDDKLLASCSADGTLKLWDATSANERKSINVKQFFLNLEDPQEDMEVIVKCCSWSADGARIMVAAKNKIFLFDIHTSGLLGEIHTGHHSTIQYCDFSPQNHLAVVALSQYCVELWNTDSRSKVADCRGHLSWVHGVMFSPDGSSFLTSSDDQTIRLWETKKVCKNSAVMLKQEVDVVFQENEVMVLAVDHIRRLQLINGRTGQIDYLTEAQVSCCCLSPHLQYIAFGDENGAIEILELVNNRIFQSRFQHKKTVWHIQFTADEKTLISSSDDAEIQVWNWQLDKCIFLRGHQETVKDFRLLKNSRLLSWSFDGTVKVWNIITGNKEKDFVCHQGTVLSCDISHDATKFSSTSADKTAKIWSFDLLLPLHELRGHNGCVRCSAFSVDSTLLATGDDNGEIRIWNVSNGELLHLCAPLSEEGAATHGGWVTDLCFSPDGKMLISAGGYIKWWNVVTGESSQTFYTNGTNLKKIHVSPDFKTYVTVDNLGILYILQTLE
In words: SAR analysis of small molecule Activators of Apaf-1 in a Fluorescent assay - set 2. The format is functional. The note with it: read-out: EC50_Mean.

The source made the active and inactive calls.

As to `O=C(O)C1CC(c2ccccc2O)=NO1` (configuration not stated), the EC50 in assay [1] and in assay [2] was > 100 µM (inactive) in each case.
